From ChEMBL document CHEMBL1201861, “Genomics of Drug Sensitity in Cancer screening data, Wellcome Trust Sanger Institute”

Experiments:
Test in all cases: cells
MIA PaCa-2 = format: functional, cell-based; conditions: Homo sapiens;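 also: growth inhibition of MIA PaCa-2 cells, read out with a cell viability assay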
Description: SANGER: Inhibition of human MIA-PaCa-2 cell growth in a cell viability assay.

CAL-85-1 = format: functional, cell-based; conditions: Homo sapiens;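 also: growth inhibition of human CAL-85-1 cells, read out with a cell viability assay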
Description: SANGER: Inhibition of human CAL-85-1 cell growth in a cell viability assay.

GCT = format: functional, cell-based; conditions: Homo sapiens;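 also: GCT cell line proliferation inhibition, read out with a cell viability assay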
Description: SANGER: Inhibition of human GCT cell growth in a cell viability assay.

RPMI-6666 = format: functional, cell-based, Homo sapiens; conditions: Homo sapiens, RPMI-6666
Description: SANGER: Inhibition of human RPMI-6666 cell growth in a cell viability assay.

P12-Ichikawa = format: functional, cell-based; conditions: Homo sapiens
SK-MEL-24 = format: functional, cell-based; conditions: Homo sapiens;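 also: growth inhibition read out by a cell viability assay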
Description: SANGER: Inhibition of human SK-MEL-24 cell growth in a cell viability assay.

RO82-W-1 = format: functional, cell-based; conditions: Homo sapiens;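 also: growth inhibition of human RO82-W-1 cells, measured with a cell viability assay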
Description: SANGER: Inhibition of human RO82-W-1 cell growth in a cell viability assay.

NCI-H716 = format: functional, cell-based, Homo sapiens; conditions: Homo sapiens, NCI-H716;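 also: growth inhibition of human NCI-H716 cells, measured by a cell viability assay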
Description: SANGER: Inhibition of human NCI-H716 cell growth in a cell viability assay.

OVCAR-3 = format: functional, cell-based; conditions: Homo sapiens;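 also: growth inhibition of human OVCAR-3 cells, determined by a cell viability assay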
Description: SANGER: Inhibition of human OVCAR-3 cell growth in a cell viability assay.

CAL-54 = format: functional, cell-based; conditions: Homo sapiens;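 also: growth inhibition of CAL-54 cells, read out by a viability measurement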
Description: SANGER: Inhibition of human CAL-54 cell growth in a cell viability assay.

SCC-3 = format: functional, cell-based, Homo sapiens; conditions: Homo sapiens, SCC-3;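 also: cell viability assay measuring inhibition of SCC-3 cell growth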
Description: SANGER: Inhibition of human SCC-3 cell growth in a cell viability assay.

GDM-1 = format: functional, cell-based, Homo sapiens; conditions: Homo sapiens, GDM-1; read-out: IC50;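 also: cell viability readout used to measure growth inhibition of human GDM-1 cells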
Description: SANGER: Inhibition of human GDM-1 cell growth in a cell viability assay.

SW1990 = format: functional, cell-based; conditions: Homo sapiens;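 also: cell growth inhibition determined with a viability assay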
Description: SANGER: Inhibition of human SW1990 cell growth in a cell viability assay.

S-117 = format: functional, cell-based; conditions: Homo sapiens
Description: SANGER: Inhibition of human S-117 cell growth in a cell viability assay.

AU565 = format: functional, cell-based; conditions: Homo sapiens;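 also: cell viability assay measuring growth inhibition of human AU565 cells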
Description: SANGER: Inhibition of human AU565 cell growth in a cell viability assay.

H4 = format: functional, cell-based; conditions: Homo sapiens
Description: SANGER: Inhibition of human H4 cell growth in a cell viability assay.

SiHa = format: functional, cell-based; conditions: Homo sapiens;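 also: Viability-based readout of growth inhibition in SiHa cells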
Description: SANGER: Inhibition of human SiHa cell growth in a cell viability assay.

KYSE-450 = format: functional, cell-based; conditions: Homo sapiens;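 also: cell growth inhibition measured by a viability assay in human KYSE-450 cells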
Description: SANGER: Inhibition of human KYSE-450 cell growth in a cell viability assay.

SW13 = format: functional, cell-based; conditions: Homo sapiens;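 also: IC50 is inhibition of SW13 cell growth, read out with a cell viability assay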
Description: SANGER: Inhibition of human SW13 cell growth in a cell viability assay.

TE-15 = format: functional, cell-based, Homo sapiens; conditions: Homo sapiens, TE-15;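 also: cell viability readout of growth inhibition in TE-15 cells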
Description: SANGER: Inhibition of human TE-15 cell growth in a cell viability assay.

SNU-16 = format: functional, cell-based, Homo sapiens; conditions: Homo sapiens, SNU-16;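 also: growth inhibition of human SNU-16 cells, determined with a cell viability readout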
Description: SANGER: Inhibition of human NCI-SNU-16 cell growth in a cell viability assay.

SCC-25 = format: functional, cell-based; conditions: Homo sapiens;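 also: growth inhibition of SCC-25 cells, measured with a cell viability assay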
Description: SANGER: Inhibition of human SCC-25 cell growth in a cell viability assay.

NCI-H2347 = format: functional, cell-based; conditions: Homo sapiens;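 also: growth inhibition of the cell line, read out with a cell viability assay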
Description: SANGER: Inhibition of human NCI-H2347 cell growth in a cell viability assay.

HSC-3 = format: functional, cell-based; conditions: Homo sapiens
Description: SANGER: Inhibition of human HSC-3 cell growth in a cell viability assay.

TALL-1 = format: functional, cell-based, Homo sapiens; conditions: Homo sapiens, TALL-1;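 also: growth inhibition of cultured human TALL-1 cells, read out by a cell viability assay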
Description: SANGER: Inhibition of human TALL-1 cell growth in a cell viability assay.

D-392MG = format: functional, cell-based; conditions: Homo sapiens
P31-FUJ = format: functional, cell-based, Homo sapiens; conditions: Homo sapiens, P31-FUJ;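 also: growth inhibition of P31-FUJ cells, read out with a viability assay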
Description: SANGER: Inhibition of human P31-FUJ cell growth in a cell viability assay.

ECC4 = format: functional, cell-based, Homo sapiens; conditions: Homo sapiens, ECC4;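 also: growth inhibition of ECC4 cells, read out with a cell viability assay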
Description: SANGER: Inhibition of human ECC4 cell growth in a cell viability assay.

MDA-MB-157 = format: functional, cell-based; conditions: Homo sapiens
Description: SANGER: Inhibition of human MDA-MB-157 cell growth in a cell viability assay.

SIG-M5 = format: functional, cell-based, Homo sapiens; conditions: Homo sapiens, SIG-M5;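 also: cell viability assay read-out, measuring how strongly growth of cultured human SIG-M5 cells is inhibited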
Description: SANGER: Inhibition of human SIG-M5 cell growth in a cell viability assay.

UO-31 = format: functional, cell-based; conditions: Homo sapiens;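 also: cell viability assay measuring inhibition of cell growth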
Description: SANGER: Inhibition of human U031 cell growth in a cell viability assay.

NCI-H2122 = format: functional, cell-based; conditions: Homo sapiens;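 also: growth inhibition of the cells, read out with a cell viability assay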
Description: SANGER: Inhibition of human NCI-H2122 cell growth in a cell viability assay.

LU-165 = format: functional, cell-based, Homo sapiens; conditions: Homo sapiens, LU-165
Description: SANGER: Inhibition of human LU-165 cell growth in a cell viability assay.

SW948 = format: functional, cell-based; conditions: Homo sapiens;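 also: growth inhibition of SW948 cells, read out with a cell viability assay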
Description: SANGER: Inhibition of human SW948 cell growth in a cell viability assay.

SUP-T1 = format: functional, cell-based, Homo sapiens; conditions: Homo sapiens, SUP-T1;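 also: growth inhibition of human SUP-T1 cells, read out as cell viability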
Description: SANGER: Inhibition of human SUP-T1 cell growth in a cell viability assay.

A2780 = format: functional, cell-based; conditions: Homo sapiens;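 also: growth inhibition of A2780 cells, read out with a cell viability assay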
Description: SANGER: Inhibition of human A2780 cell growth in a cell viability assay.

CHP-212 = format: functional, cell-based; conditions: Homo sapiens
Description: SANGER: Inhibition of human CHP-212 cell growth in a cell viability assay.

KU-19-19 = format: functional, cell-based; conditions: Homo sapiens
Description: SANGER: Inhibition of human KU-19-19 cell growth in a cell viability assay.

IGR-1 = format: functional, cell-based; conditions: Homo sapiens;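 also: growth inhibition of human IGR-1 cells, read out with a cell viability assay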
Description: SANGER: Inhibition of human IGR-1 cell growth in a cell viability assay.

COLO-792 = format: functional, cell-based; conditions: Homo sapiens
Description: SANGER: Inhibition of human COLO-792 cell growth in a cell viability assay.

NCI-H292 = format: functional, cell-based; conditions: Homo sapiens;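 also: growth inhibition of NCI-H292 cells, read out with a cell viability assay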
Description: SANGER: Inhibition of human NCI-H292 cell growth in a cell viability assay.

JIYOYE = format: functional, cell-based, Homo sapiens; conditions: Homo sapiens, JIYOYE
Description: SANGER: Inhibition of human JiyoyeP-2003 cell growth in a cell viability assay.

HCC1569 = format: functional, cell-based; conditions: Homo sapiens;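 also: growth inhibition of human HCC1569 cells, read out with a cell viability assay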
Description: SANGER: Inhibition of human HCC1569 cell growth in a cell viability assay.

MDA-MB-415 = format: functional, cell-based; conditions: Homo sapiens
UMC-11 = format: functional, cell-based; conditions: Homo sapiens;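 also: growth inhibition of UMC-11 cells, read out with a cell viability assay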
Description: SANGER: Inhibition of human UMC-11 cell growth in a cell viability assay.

BPH-1 = format: functional, cell-based; conditions: Homo sapiens;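 also: cell viability assay measuring growth inhibition of human BPH-1 cells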
Description: SANGER: Inhibition of human BPH-1 cell growth in a cell viability assay.

UACC-62 = format: functional, cell-based; conditions: Homo sapiens;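 also: growth inhibition of human UACC-62 cells, read out by a cell viability assay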
Description: SANGER: Inhibition of human UACC-62 cell growth in a cell viability assay.

HuO9 = format: functional, cell-based; conditions: Homo sapiens;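 also: growth inhibition of HuO9 cells, read out with a cell viability assay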
Description: SANGER: Inhibition of human HuO9 cell growth in a cell viability assay.

DBTRG-05MG = format: functional, cell-based; conditions: Homo sapiens;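 also: cell viability assay measuring growth inhibition of human DBTRG-05MG cells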
Description: SANGER: Inhibition of human DBTRG-05MG cell growth in a cell viability assay.

786-0 = format: functional, cell-based; conditions: Homo sapiens
Description: SANGER: Inhibition of human 786-0 cell growth in a cell viability assay.

NCI-H520 = format: functional, cell-based; conditions: Homo sapiens;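 also: growth inhibition of NCI-H520 cells, measured by a cell viability assay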
Description: SANGER: Inhibition of human NCI-H520 cell growth in a cell viability assay.

MKN-45 = format: functional, cell-based; conditions: Homo sapiens;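 also: growth inhibition of human MKN-45 cells, measured with a cell viability assay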
Description: SANGER: Inhibition of human MKN45 cell growth in a cell viability assay.

MHH-ES-1 = format: functional, cell-based; conditions: Homo sapiens;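 also: cell growth inhibition measured by a cell viability assay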
Description: SANGER: Inhibition of human MHH-ES-1 cell growth in a cell viability assay.

HCC1599 = format: functional, cell-based, Homo sapiens; conditions: Homo sapiens, HCC1599;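 also: growth inhibition of HCC1599 cells, read out in a cell viability assay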
Description: SANGER: Inhibition of human HCC1599 cell growth in a cell viability assay.

CAL-148 = format: functional, cell-based, Homo sapiens; conditions: Homo sapiens, CAL-148
Description: SANGER: Inhibition of human CAL-148 cell growth in a cell viability assay.

KYSE-180 = format: functional, cell-based; conditions: Homo sapiens;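 also: growth inhibition of KYSE-180 cells, read out with a cell viability assay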
Description: SANGER: Inhibition of human KYSE-180 cell growth in a cell viability assay.

HuO-3N1 = format: functional, cell-based; conditions: Homo sapiens;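 also: cell viability readout used to measure how strongly compounds suppress proliferation of human HuO-3N1 cells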
Description: SANGER: Inhibition of human HuO-3N1 cell growth in a cell viability assay.

TE-441-T = format: functional, cell-based, Homo sapiens; conditions: Homo sapiens, TE-441-T
Description: SANGER: Inhibition of human TE-441-T cell growth in a cell viability assay.

With `O=S(=O)(O)c1ccc2cc(/N=N/c3cc(S(=O)(=O)O)c4cccnc4c3O)ccc2c1` the IC50 (MIA PaCa-2) was over 16 µM, the IC50 (CAL-85-1) was over 16 µM and the IC50 (GCT) was over 16 µM. For the same compound, the IC50 (RPMI-6666) was over 16 µM, the IC50 (P12-Ichikawa) was over 16 µM and the IC50 (SK-MEL-24) was over 16 µM. For the same compound, the IC50 (RO82-W-1) was over 16 µM, the IC50 (NCI-H716) was over 16 µM and the IC50 (OVCAR-3) was over 16 µM. For the same compound, the IC50 (CAL-54) was over 16 µM, the IC50 (SCC-3) was over 16 µM and the IC50 (GDM-1) was over 16 µM. For the same compound, the IC50 (SW1990) was over 16 µM, the IC50 (S-117) was over 16 µM and the IC50 (AU565) was over 16 µM. It also gave an IC50 (H4) of over 16 µM, an IC50 (SiHa) of over 16 µM and an IC50 (KYSE-450) of over 16 µM. For the same compound, the IC50 (SW13) was over 16 µM, the IC50 (TE-15) was over 16 µM and the IC50 (SNU-16) was over 16 µM. It also gave an IC50 (SCC-25) of over 16 µM, an IC50 (NCI-H2347) of over 16 µM and an IC50 (HSC-3) of over 16 µM. The IC50 (TALL-1) was over 16 µM, the IC50 (D-392MG) was over 16 µM and the IC50 (P31-FUJ) was over 16 µM. The IC50 (ECC4) was over 16 µM, the IC50 (MDA-MB-157) was over 16 µM and the IC50 (SIG-M5) was over 16 µM. The IC50 (UO-31) was 13.6 µM, the IC50 (NCI-H2122) was over 16 µM and the IC50 (LU-165) was over 16 µM. The IC50 (SW948) was over 16 µM, the IC50 (SUP-T1) was over 16 µM and the IC50 (A2780) was over 16 µM. It also gave an IC50 (CHP-212) of over 16 µM, an IC50 (KU-19-19) of over 16 µM and an IC50 (IGR-1) of over 16 µM. The IC50 (COLO-792) was over 16 µM, the IC50 (NCI-H292) was over 16 µM and the IC50 (JIYOYE) was over 16 µM. The IC50 (HCC1569) was over 16 µM, the IC50 (MDA-MB-415) was over 16 µM and the IC50 (UMC-11) was over 16 µM. The IC50 (BPH-1) was over 16 µM, the IC50 (UACC-62) was over 16 µM and the IC50 (HuO9) was over 16 µM. For the same compound, the IC50 (DBTRG-05MG) was over 16 µM, the IC50 (786-0) was 5.59 µM and the IC50 (NCI-H520) was over 16 µM. It also gave an IC50 (MKN-45) of over 16 µM, an IC50 (MHH-ES-1) of over 16 µM and an IC50 (HCC1599) of over 16 µM. For the same compound, the IC50 (CAL-148) was over 16 µM, the IC50 (KYSE-180) was over 16 µM and the IC50 (HuO-3N1) was over 16 µM. The IC50 (TE-441-T) was over 16 µM.
